Data on 1 molecule can be found in patent publication US20040001859A1, “Anti-aging dietary supplements” (priority 2002, published 2004).

This assay deals with MDA (lipid peroxidation) in blood. The experiment in a line: MDA rat model assay (blood MDA, aged rats). Format: in vivo, wistar rats. Here is the method: A total of forty 3.5 year old wistar rats were divided into four groups, each containing 10 rats. Groups A, B, C and VE were treated with the activated yeast composition, the control yeast composition, saline and Vitamin E, respectively. Eight 8 month old wistar rats were also selected for group D, which were used as a junior control group.
Groups A, B and VE were administered daily 3 ml/kg (body weight) of the activated yeast composition, 3 ml/kg of the control yeast composition and 0.25 mg/kg of Vitamin E, respectively. Groups C and D were both treated with 3 ml/kg of saline daily. After three months of treatment, blood samples were taken from the heart of the rats and placed in a test tube with heparin. The test tube was then incubated at 37° C. for 10 minutes and centrifuged at 2500 rpm for 10 minutes. 4 ml of sulfuric acid and 0.5 ml of phosphotungstic acid were added to the serum and left at room temperature for 5 minutes after mixing. The mixture was then centrifuged at 3000 rpm for 10 minutes. 2 ml of sulfuric acid and 0.3 ml of phosphotungstic acid were added to the precipitate. Finally, the mixture was used to determine the MDA concentration as described previously.

Regarding `Cc1c(C)c2c(c(C)c1O)CC[C@@](C)(CCC[C@H](C)CCC[C@H](C)CCCC(C)C)O2` [VE, Vitamin E], the “MDA” value (3.5 year old rats, blood from heart after three months of daily treatment, yeast compositions 3 ml/kg, Vitamin E 0.25 mg/kg) turned out to be 4.36 ± 0.78 µM. In addition, the “lipid peroxidation compared to control yeast composition or saline” value (aged rats, three months, in words) was “reduced lipid peroxidation”.
